Patent US20090318396A1, “CORTICOSTEROID LINKED BETA-AGONIST COMPOUNDS FOR USE IN THERAPY” (priority 2008, published 2009)

Assays:
[1] = Drug levels in plasma, BALF and lung after IT administration in the rat; conditions: IT
Procedure: Compounds of Examples 52 and 83 were formulated for intratracheal (IT) dosing in 10% EtOH, 90% Sterile Water, and dosed in male Sprague-Dawley rats at 3 mg/kg (Example 52) and 1 mg/kg (Example 83). Each dosing group consisted of 3 male, naïve purebred Sprague-Dawley rats. At dosing, the animals weighed ˜0.30 kg. The animals were fasted overnight prior to dose administration and up to 2 hr after dosing. The compounds were administered IT using a Penn Century Microsprayer (Model 1A-1B).
Blood samples were collected at 0.5, 2, and 4 hours post-dose. Each blood sample (0.5-0.6 mL per sample) was collected via the orbital sinus (following anesthesia for BAL procedure) into tubes containing EDTA anti-coagulant into containers surrounded by dry ice at 0.5, 2 and 4 hr (mean, n=6). Blood samples were stored at −20±5° C. until shipped for analysis.
The animals were anesthetized with an intramuscular (IM) injection of a ketamine/xylazine/acepromazine (80/10/2 mg/kg) cocktail at a dose volume of 1.1 mL/kg. A cannula (modified Bard® infant feeding tube) was inserted into the trachea. Warmed sterile saline was injected into the lungs. The lungs were gently massaged by palpation of the chest for approximately 45 seconds. The fluid (BALF) was recovered and placed on ice. The procedure was repeated two more times, and all three BALF samples pooled. The fluid was centrifuged under refrigerated conditions at 350 g for 10 minutes. The supernatant and cell pellet were collected and stored at approximately −70° C. until shipped for analysis.
Immediately following each BAL procedure, the lungs from each animal were removed, blotted dry, weighed, and stored frozen at −70° C. until shipped for analysis.
An LC/MS/MS method was used to measure the concentration of compound in plasma.
Add 3×w/v of 1×PBS buffer (90:10-PBS:ACN) to each lung tissue. Homogenize the sample w/Polytron (PT1200) and take 50 uL of supernatant and inject to LC/MSMS.
An aliquot of 50 μL of each plasma sample was treated with 100 mL of acetonitrile (ACN) containing internal standard. After the protein precipitation, an aliquot of 100 μL of the supernatant was transferred to a clean 96-well plate and mixed with 100 μL of water. An aliquot of 30 μL of the above solution was injected to the TSQ Ultra Quantum LC/MS/MS system.
A HyPurity C18 HPLC column (30×2.1 mm, 5μ) from ThermoHypersil (Part #: 22105-032130) was used. Mobile phase A contained 1% acetonitrile in 10 mM ammonium formate aqueous solution with 1% formic acid. Mobile phase B contained 80% acetonitrile in 10 mM ammonium formate with 1% formic acid. An Agilent 1100 series binary pump (P/N G1312A Bin Pump) was used for elution and separation. HTS Pal autosampler from LEAP Technologies, Carrboro, N.C. was used.
TSQ Quantum Ultra triple quadrupole mass spectrometer from Thermo Finnigan, San Jose, Calif. was used in selective reaction monitoring (SRM) operation mode, Tune file:

[2] = tested on: LPS-induced airway inflammation; assay: LPS-induced airway inflammation in rats; format: in vivo, Male Fischer 344 rats; conditions: for TNFα / Neutrophils: rat BAL, mean ± s.e.m.
Procedure: Example 52 was evaluated in an LPS-induced airway inflammation model in rats. Male Fischer 344 rats (n 8/group) were treated with either vehicle or test article by intratracheal instillation in […] volume 1 hour prior to LPS challenge. Animals were then exposed to LPS by nose-only inhalation exposure for 10 minutes at 5 mg/m^3 resulting in an estimated 5 μg lung deposition. Animals were sacrificed 4 hours after LPS exposure. Lungs were lavaged for bronchoalveolar lavage cell differentials and cytokine analysis by Luminex multiplex immunoassay.

[3] = tested on: carbachol-induced bronchoconstriction; assay: Carbachol-induced bronchoconstriction in sheep; format: in vivo; conditions: Example 52 4.7 mg, Salmeterol 2.5 mg, mean ± s.e.m, n=4
Procedure: Bronchoconstriction was evaluated as a function of increased pulmonary resistance following carbachol challenge. […] Test article was administered either by a pre-dosing or duration of action protocol. In the pre-dosing regimen, animals were dosed once daily for four days, with the last dose administered 1 hr before carbachol challenge. In the duration of action regimen, animals were dosed once daily for four days, with the last dose administered 24 hours before carbachol challenge. Test article and carbachol were administered by nebulized aerosol to intubated sheep.

[4] = tested on: ragweed-induced bronchoconstriction; assay: Ragweed-induced bronchoconstriction in dogs; format: in vivo, beagle dogs; conditions: mean ± s.e.m.
Procedure: The compound of Example 52 was assesed for bronchodilator activity in a ragweed-induced bronchoconstriction model in beagle dogs. Dogs were mechanically ventilated during each experiment. Airflow and tidal volume were measured using a differential pressure transducer located in front of the endotracheal tube. An esophageal balloon catheter placed in the esophagus was used to determine transpulmonary pressure. Pulmonary resistance and dynamic lung compliance were calculated from the simultaneous measurement of transpulmonary pressure and respiratory flow. The canine exposure system was designed to expose an anesthetized animal via an intubation tube. Dogs were administered vehicle or test article by inhalation 30 minutes before ragweed antigen exposure (n=4). Dogs were challenged with ragweed antigen (ragweed short, Ambrosia artemisifolia, Greer, Lenoir, N.C.) by inhalation (5 breaths). Immediately following ragweed challenge, changes in pulmonary resistance and compliance were measured for up to 30 minutes.

[5] = tested on: tobacco-smoke-induced airway inflammation; assay: Tobacco smoke model of airway inflammation in mice; format: in vivo, female C3H mice; conditions: for IL-1α / MIP-1α / Neutrophils: mean ± s.e.m.
Procedure: Vehicle and test articles are delivered by intratracheal instillation in 10% ethanol water to animals anesthetized with 3-5% isoflurane (n=8 animals per test article group). All compounds will be delivered on a daily (5 days per week) schedule for 3 weeks during the smoke exposures. Mice were exposed to cigarette smoke for 6 hours per day, 5 days per week for 3 weeks, in H1000 or H2000 chambers. Type 2R4F research cigarettes (Kentucky Tobacco Research and Development Center) were used in the study. Total particulate material (TPM) exposure was kept at […] for the first week to allow animals to reduce adverse effects during adaptation to smoke exposure. TPM exposure was maintained between 100 and 250 mg TPM/m^3 during the remainder of the study. After 3 weeks, animals were euthanized and bronchoalveolar lavage fluid was obtained for cell differentials and cytokine analysis by Luminex multiplex immunoassay.

[6] = tested on: Ascaris suum antigen-induced bronchoconstriction and airway hyperreactivity; assay: Ascaris suum-induced pulmonary responses in sheep; format: in vivo
Procedure: One breath unit is defined as one breath of a 1% w/v carbachol solution. Test article was administered either by a pre-dosing or duration of action protocol. In the pre-dosing regimen, animals were dosed once daily for four days, with the last dose administered 1 hr before antigen. In the duration of action regimen, animals were dosed once daily for four days, with the last dose administered 24 hours before antigen. Test article, Ascaris antigen, and carbachol were administered by nebulized aerosol to intubated sheep.

Compound: CC[N+](CC)(CC(=O)OCC(=O)[C@@]12O[C@H](C3CCCCC3)O[C@@H]1C[C@H]1[C@@H]3CCC4=CC(=O)C=C[C@]4(C)[C@H]3[C@@H](O)C[C@@]12C)Cc1cc(C(O)CNCCCCCCOCCCCc2ccccc2)ccc1OP(=O)(O)O.[Cl-] (stereo partly drawn) [Example 52, [5-[1-hydroxy-2-[6-(4-phenylbutoxy)hexylamino]ethyl]-2-phosphonooxybenzyl]-(diethyl)-[[11β,16α]-[[15,16-((R)-cyclohexylmethylene)bis(oxy)]-11-hydroxypregna-1,4-diene-3,20-dion-21-yl]carbonylmethyl]ammonium chloride]
- Metabolism in the lung following IT administration [1]: metabolized to Salmeterol and Desisobutyryl Ciclesonide in the lung
- TNFα ([2]; 0.6 mg/kg intratracheal): 293.6 ± 40.6 pg/mL
- TNFα ([2]; 1 mg/kg intratracheal): 361.7 ± 56.6 pg/mL
- Neutrophils ([2]; 3 mg/kg intratracheal, 1 hour prior to LPS): 13.5 ± 0.92 × 10^4/ml
- TNFα ([2]; 3 mg/kg intratracheal): 307.0 ± 60.0 pg/mL
- Neutrophils ([2]; 6 mg/kg intratracheal): 6.4 ± 0.41 × 10^4/ml
- Inhibition of LPS-induced airway inflammation measured as neutrophil influx and TNFα production ([2]; at doses tested, versus vehicle control): significantly inhibit
- Lung Resistance (% Increase) at 2% Carbachol ([3]; Duration of action regimen (last dose 24 hours before carbachol), Ciclesonide 2.2 mg + Salmeterol Xinafoate 2.5 mg): 450 ± 36 % Increase
- Lung Resistance (% Increase) at 2% Carbachol ([3]; Predosing regimen (last dose 1 hr before carbachol)): 335 ± 38 % Increase
- Pulmonary Resistance (% of Baseline) ([4]; 6 μg/kg by inhalation): 266.1 ± 19.6 % of Baseline
- Pulmonary Resistance (% of Baseline) ([4]; 20 μg/kg by inhalation): 181.2 ± 11.5 % of Baseline
- IL-1α ([5]; 0.6 mg/kg i.t.): 2.54 ± 0.59 pg/mL
- MIP-1α ([5]; 0.6 mg/kg i.t.): 4.34 ± 1.15 pg/mL
- Neutrophils ([5]; 0.6 mg/kg i.t.): 7.7 ± 1.8 ×10^4/ml
- IL-1α ([5]; 1.0 mg/kg i.t.): 2.74 ± 0.64 pg/mL
- MIP-1α ([5]; 1.0 mg/kg i.t.): 7.0 ± 1.40 pg/mL
- Neutrophils ([5]; 1.0 mg/kg i.t.): 8.5 ± 1.3 ×10^4/ml
- Inhibition of tobacco-smoke-induced IL-1α and MIP-1α production ([5]; p<0.05 versus vehicle control at 1.0 and 0.6 mg/kg doses, 20-plex Luminex assay): exhibited inhibition
- Bronchoconstriction, Lung Resistance (% Increase) ([6]; Duration of action regimen (last dose 24 hours before antigen), Post-Ascaris, Example 52 4.7 mg, ciclesonide 2.2 mg, salmeterol xinafoate 2.5 mg, n=4): 226 % Increase
- Bronchoconstriction, Lung Resistance (% Increase) ([6]; Duration of action regimen, 1 hour, n=4): 95 % Increase
- Bronchoconstriction, Lung Resistance (% Increase) ([6]; Duration of action regimen, 2 hours, n=4): 47 % Increase
- Bronchoconstriction, Lung Resistance (% Increase) ([6]; Duration of action regimen, 3 hours, n=4): 17 % Increase
- Bronchoconstriction, Lung Resistance (% Increase) ([6]; Duration of action regimen, 4 hours, n=4): 14 % Increase
- Bronchoconstriction, Lung Resistance (% Increase) ([6]; Duration of action regimen, 5 hours, n=4): 25 % Increase
- Bronchoconstriction, Lung Resistance (% Increase) ([6]; Duration of action regimen, 6 hours, n=4): 31 % Increase
- Bronchoconstriction, Lung Resistance (% Increase) ([6]; Duration of action regimen, 6.5 hours, n=4): 26 % Increase
- Bronchoconstriction, Lung Resistance (% Increase) ([6]; Duration of action regimen, 7 hours, n=4): 26 % Increase
- Bronchoconstriction, Lung Resistance (% Increase) ([6]; Duration of action regimen, 7.5 hours, n=4): 20 % Increase
- Bronchoconstriction, Lung Resistance (% Increase) ([6]; Duration of action regimen, 8 hours, n=4): 22 % Increase
- Hyperreactivity PC400 ([6]; Duration of action regimen, Baseline, Example 52 4.7 mg, ciclesonide 2.2 mg, salmeterol xinafoate 2.5 mg, n=4): 27.8 carbachol breath units
- Hyperreactivity PC400 ([6]; Duration of action regimen, Post-Antigen, n=4): 28 carbachol breath units
- Bronchoconstriction, Lung Resistance (% Increase) ([6]; Predosing regimen (last dose 1 hr before antigen), Post-Ascaris, Example 52 4.7 mg, ciclesonide 2.2 mg, n=2): 220 % Increase
- Bronchoconstriction, Lung Resistance (% Increase) ([6]; Predosing regimen, 1 hour, n=2): 118 % Increase
- Bronchoconstriction, Lung Resistance (% Increase) ([6]; Predosing regimen, 2 hours, n=2): 69 % Increase
- Bronchoconstriction, Lung Resistance (% Increase) ([6]; Predosing regimen, 3 hours, n=2): 34 % Increase
- Bronchoconstriction, Lung Resistance (% Increase) ([6]; Predosing regimen, 4 hours, n=2): 9 % Increase
- Bronchoconstriction, Lung Resistance (% Increase) ([6]; Predosing regimen, 5 hours, n=2): 24 % Increase
- Bronchoconstriction, Lung Resistance (% Increase) ([6]; Predosing regimen, 6 hours, n=2): 34 % Increase
- Bronchoconstriction, Lung Resistance (% Increase) ([6]; Predosing regimen, 6.5 hours, n=2): 19 % Increase
- Bronchoconstriction, Lung Resistance (% Increase) ([6]; Predosing regimen, 7 hours, n=2): 23 % Increase
- Bronchoconstriction, Lung Resistance (% Increase) ([6]; Predosing regimen, 7.5 hours, n=2): 28 % Increase
- Bronchoconstriction, Lung Resistance (% Increase) ([6]; Predosing regimen, 8 hours, n=2): 14 % Increase
- Hyperreactivity PC400 ([6]; Predosing regimen, Baseline, Example 52 4.7 mg, ciclesonide 2.2 mg, n=2): 27.5 carbachol breath units
- Hyperreactivity PC400 ([6]; Predosing regimen, Post-Antigen (24 hours after challenge), n=2): 26.0 carbachol breath units
- Effect on early phase bronchoconstriction ([6]; duration of action regimen): reduction
- Effect on late phase bronchoconstriction and development of airway hyperreactivity ([6]; duration of action regimen): complete inhibition
